Source: US11214803B2, “Modulators of YAP1 expression” (Ionis Pharmaceuticals, Inc., priority 2019, dated 2022)
Strand notation (5' to 3'): a small letter for the sugar, then the base; units joined by * are phosphorothioate-linked, units joined directly phosphodiester-linked; [ ] holds rarer units or linkages, { } end groups; capitals alone tell only the bases. e = 2'-O-(2-methoxyethyl) (MOE); k = constrained ethyl (cEt); [5mC] = 5-methylcytosine; d = 2'-deoxy (DNA); m = 2'-O-methyl

Each substance was assayed on Yap1 mRNA (assay: Antisense inhibition of human Yap1 in SNU-449 cells by modified oligonucleotides, single dose (Example 5, RTS36584)). Settings: Table 39; SNU-449 cells, 10,000 cells per well, free uptake, 2,000 nM oligonucleotide, approx. 48 hours; RTS36584; normalized to RIBOGREEN; Yap1 mRNA relative to untreated control.
Format: cell-based
Procedure, shortened: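 SNU-449 cells were given 2,000 nM oligonucleotide by free uptake for about 48 h. Yap1 mRNA was then measured by RT-qPCR with primer probe set RTS36584, normalized to total RNA by RIBOGREEN and expressed as percent of untreated control.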

Row | Substance | YAP1 (% UTC)
1 | 1198455 (kT*dT*dA*dG*dA*d[5mC]*dT*dA*dA*dG*dT*kA*eA*kG*eG*kT) [Compound 1198455] | 42
2 | 1198431 (kA*dA*dT*dA*dT*dT*dG*d[5mC]*dA*dA*dT*k[5mC]*eT*kG*eT*k[5mC]; antisense) [Compound 1198431] | 35
3 | 1198450 (kT*dA*dA*dG*dT*dA*dA*dG*dG*dT*dT*kT*e[5mC]*k[5mC]*e[5mC]*kA; antisense) [Compound 1198450] | 42

Same assay, conditions: Table 40 (separate experiment); SNU-449 cells, 10,000 cells per well, free uptake, 2,000 nM oligonucleotide, approx. 48 hours; RTS36584; normalized to RIBOGREEN; Yap1 mRNA relative to untreated control

Row | Substance | YAP1 (% UTC)
4 | 1198446 (kA*dA*d[5mC]*dT*dT*dT*dA*dA*dA*dG*dT*kG*eT*kA*eT*kG; antisense) [Compound 1198446] | 83
5 | 1198781 (antisense kG*eT*kA*dA*dT*dA*dT*dT*dG*d[5mC]*dA*dA*eT*e[5mC]*kT*kG) [Compound 1198781] | 25
6 | 1198780 (antisense kT*eA*kA*dT*dA*dT*dT*dG*d[5mC]*dA*dA*dT*e[5mC]*eT*kG*kT) [Compound 1198780] | 80
7 | 1198743 (k[5mC]*eT*kT*dT*dT*dA*d[5mC]*dA*dT*dT*dA*dG*eG*eA*kA*k[5mC]; antisense) [Compound 1198743] | 86
8 | 1198440 (kA*dA*dG*dT*dG*dT*dA*dT*dG*dT*d[5mC]*kA*eG*kA*eA*kG) [Compound 1198440] | 5
9 | 1198760 (kT*eT*kA*dG*dG*dA*dT*dG*d[5mC]*dA*dT*dG*eG*eT*kT*kT; antisense) [Compound 1198760] | 91
10 | 1198445 (k[5mC]*dT*dT*dT*dA*dA*dA*dG*dT*dG*dT*kA*eT*kG*eT*k[5mC]; antisense) [Compound 1198445] | 61
11 | 1198726 (kT*eT*kA*dG*dA*dG*dT*dA*dT*dG*dT*dG*eG*e[5mC]*kA*kA; antisense) [Compound 1198726] | 28
12 | 1198751 (kT*eT*kG*dG*dA*dA*dG*dA*dT*d[5mC]*dT*dG*eA*eA*kA*k[5mC]; antisense) [Compound 1198751] | 76

Same assay, conditions: Table 41; SNU-449 cells, 10,000 cells per well, free uptake, 2,000 nM modified oligonucleotide, approximately 48 hours; RTS36584; normalized to RIBOGREEN; Yap1 mRNA relative to untreated control cells

Row | Substance | YAP1 (% UTC)
13 | 1198771 (kT*e[5mC]*kT*dT*dA*dT*dA*dT*dG*dG*dT*dT*eT*eT*kG*kT; antisense) [Compound 1198771] | 85
14 | 1198775 (k[5mC]*eA*kA*d[5mC]*dT*d[5mC]*dT*dT*dA*dT*dA*dT*eG*eG*kT*kT; antisense) [Compound 1198775] | 113
15 | 1198670 (antisense kT*kT*dA*dG*dG*dA*dT*dG*d[5mC]*dA*dT*dG*kG*eT*kT*eT) [Compound 1198670] | 55
16 | 1198671 (antisense kT*kT*dT*dA*dG*dG*dA*dT*dG*d[5mC]*dA*dT*kG*eG*kT*eT) [Compound 1198671] | 26
17 | 1198674 (antisense kA*kG*dA*dT*dT*dT*dA*dG*dG*dA*dT*dG*k[5mC]*eA*kT*eG) [Compound 1198674] | 21
18 | 1198643 (kA*kT*dA*dT*dT*dA*dG*dA*dG*dT*dA*dT*kG*eT*kG*eG; antisense) [Compound 1198643] | 25

Same assay, conditions: Table 42 (separate experiment); SNU-449 cells, 10,000 cells per well, free uptake, 2,000 nM modified oligonucleotide, approximately 48 hours; RTS36584; normalized to RIBOGREEN; Yap1 mRNA relative to untreated control cells

Row | Substance | YAP1 (% UTC)
19 | 1198211 (kA*kT*dT*dA*dG*dA*dG*dT*dA*dT*dG*eT*eG*eG*k[5mC]*kA; antisense) [Compound 1198211] | 19
20 | 1198237 (AGTGCTTTGGAAGATC; chemistry not fully specified) [Compound 1198237] | 51
21 | 1198204 (kT*kG*dG*dA*dA*dA*dT*dT*dG*dT*d[5mC]*eT*e[5mC]*eA*kT*kG; antisense) [Compound 1198204] | 31

Same assay, conditions: Table 43 experiment; SNU-449 cells, 10,000 cells per well, free uptake, 2,000 nM, approximately 48 hours; RTS36584; Yap1 mRNA normalized to RIBOGREEN, relative to untreated control cells

Row | Substance | YAP1 (% UTC)
22 | 1198265 (kT*kT*dT*dA*dT*dG*dT*dA*dA*dT*dA*eT*eT*eG*k[5mC]*kA; antisense) [Compound 1198265] | 111
23 | 1198456 (kT*kG*dT*d[5mC]*dT*d[5mC]*dA*dT*dG*d[5mC]*d[5mC]*eT*kT*eA*kT*eA) [Compound 1198456] | 21
24 | 1198274 (kA*kA*d[5mC]*dT*dT*dT*dA*dA*dA*dG*dT*eG*eT*eA*kT*kG; antisense) [Compound 1198274] | 69

Same assay, conditions: Table 44 experiment; SNU-449 cells, 10,000 cells per well, free uptake, 2,000 nM, approximately 48 hours; RTS36584; Yap1 mRNA normalized to RIBOGREEN, relative to untreated control cells

Row | Substance | YAP1 (% UTC)
25 | 1198541 (antisense kT*kT*dA*dG*dA*d[5mC]*dT*dA*dA*dG*dT*eA*kA*eG*kG*eT) [Compound 1198541] | 34
26 | 1198539 (antisense kG*kA*d[5mC]*dT*dA*dA*dG*dT*dA*dA*dG*eG*kT*eT*kT*e[5mC]) [Compound 1198539] | 54
27 | 1198498 (antisense kT*kT*dA*dG*dG*dA*dT*dG*d[5mC]*dA*dT*eG*kG*eT*kT*eT) [Compound 1198498] | 39

Same assay, conditions: Table 45; Yap1 mRNA as percent of untreated control, SNU-449 cells, single dose

Row | Substance | YAP1 (% UTC)
28 | 1198909 (kG*kG*dT*dA*dT*dA*dA*d[5mC]*dT*dG*dG*kG*d[5mC]*kA*dA*kA; antisense) [Compound 1198909] | 56
29 | 1095491 (antisense kA*k[5mC]*dT*dG*dA*dG*dG*dT*dA*dT*dA*kA*d[5mC]*kT*dG*kG) [Compound 1095491] | 65

Same assay, conditions: Table 46; Yap1 mRNA as percent of untreated control, SNU-449 cells, single dose

Row | Substance | YAP1 (% UT)
30 | 1198865 (kA*kA*dT*dA*dT*dT*dG*d[5mC]*dA*dA*dT*k[5mC]*eT*kG*eT*k[5mC]; antisense) [Compound 1198865] | 38
31 | 1198886 (kA*k[5mC]*dT*dA*dA*dG*dT*dA*dA*dG*dG*kT*eT*kT*e[5mC]*k[5mC]; antisense) [Compound 1198886] | 45

Same assay, conditions: Table 48; Yap1 mRNA level relative to untreated control; modified oligonucleotides targeting SEQ ID NO.: 1 and 2

Row | Substance | YAP1 (% UT)
32 | 1198293 (kA*kG*kT*dA*dT*dG*dT*dG*dG*d[5mC]*dA*dA*kT*eA*kA*eT; antisense) [Compound 1198293] | 25

Same assay, conditions: Table 49; Yap1 mRNA level relative to untreated control; modified oligonucleotides targeting SEQ ID NO.: 1 and 2

Row | Substance | YAP1 (% UT)
33 | 1198336 (k[5mC]*kT*kT*dA*dT*dA*dT*dG*dG*dT*dT*dT*kT*eG*kT*eG; antisense) [Compound 1198336] | 31
34 | 1095566 (antisense CTGAGGTATAACTGGG; chemistry not fully specified) [Compound 1095566] | 47
35 | 1198577 (antisense k[5mC]*kT*kT*dT*dG*dG*dA*dA*dG*dA*dT*d[5mC]*kT*kG*kA*eA) [Compound 1198577] | 40
36 | 1198367 (kG*kA*k[5mC]*dT*dA*dA*dG*dT*dA*dA*dG*dG*kT*eT*kT*e[5mC]; antisense) [Compound 1198367] | 58

Same assay, conditions: Table 50; Yap1 mRNA remaining as percent of untreated control (UT), SNU-449 cells, single dose

Row | Substance | YAP1 (% UT)
37 | 1198621 (kA*kA*kG*dT*dA*dA*dG*dG*dT*dT*dT*d[5mC]*k[5mC]*k[5mC]*kA*eG; antisense) [Compound 1198621] | 80
38 | 1198598 (antisense kA*kA*k[5mC]*dT*d[5mC]*dT*dT*dA*dT*dA*dT*dG*kG*kT*kT*eT) [Compound 1198598] | 76
39 | 1197246 (antisense kA*kG*k[5mC]*dA*mC*dT*dT*dT*dT*dA*d[5mC]*dA*dT*kT*kA*kG) [Compound 1197246] | 33
40 | 1197288 (kT*k[5mC]*kT*dA*mU*dA*dT*dT*dA*dG*dA*dG*dT*kA*kT*kG; antisense) [Compound 1197288] | 94
41 | 1198602 (antisense kA*kT*kA*dT*dT*dG*d[5mC]*dA*dA*dT*d[5mC]*dT*kG*kT*k[5mC]*eT) [Compound 1198602] | 29
42 | 1197233 (antisense kT*kA*kG*dA*mG*dT*dA*dT*dG*dT*dG*dG*d[5mC]*kA*kA*kT) [Compound 1197233] | 36
43 | 1198618 (antisense kA*kA*k[5mC]*dT*dT*dT*dA*dA*dA*dG*dT*dG*kT*kA*kT*eG) [Compound 1198618] | 74

Same assay, conditions: Table 51; Yap1 mRNA remaining as percent of untreated control (UT), SNU-449 cells, single dose

Row | Substance | YAP1 (% UT)
44 | 1197271 (kT*kT*kT*dA*mA*dA*dG*dT*dG*dT*dA*dT*dG*kT*k[5mC]*kA) [Compound 1197271] | 12
45 | 1197314 (kA*kA*kA*dG*mU*dG*dT*dA*dT*dG*dT*d[5mC]*dA*kG*kA*kA; antisense) [Compound 1197314] | 22
46 | 1197255 (antisense kT*kT*kT*dA*mG*dG*dA*dT*dG*d[5mC]*dA*dT*dG*kG*kT*kT) [Compound 1197255] | 38

Same assay, conditions: Table 52; Yap1 mRNA, modified oligonucleotides targeting SEQ ID NO: 1 and 2

Row | Substance | YAP1 (% UT)
47 | 1200825 (kT*kG*k[5mC]*dT*dT*mU*dG*dG*dA*dA*dG*dA*dT*k[5mC]*kT*kG; antisense) [Compound 1200825] | 39
48 | 1200842 (k[5mC]*kT*k[5mC]*dT*dT*mA*dT*dA*dT*dG*dG*dT*dT*kT*kT*kG; antisense) [Compound 1200842] | 168

Same assay, conditions: Yap1 mRNA, percent of untreated control; modified oligonucleotides targeting SEQ ID NO: 1 and 2; Table 47

Row | Substance | YAP1 (% UT)
49 | 1197225 (antisense kG*kA*k[5mC]*dT*dA*dA*dG*dT*dA*dA*dG*dG*dT*kT*kT*k[5mC]) [Compound 1197225] | 46
